Experiments:
Assay type in all cases: cell-based
[1] = target: T1, N-SMase (Homo sapiens, UniProt Q9NY59); test: Assay of N-SMase activity in primary human neurons; details: activated astroglia-insulted human neurons, chemical inhibitors
T1 construct: endogenous in cells; host or cells: primary human neurons
T1 sequence (Q9NY59 1-655): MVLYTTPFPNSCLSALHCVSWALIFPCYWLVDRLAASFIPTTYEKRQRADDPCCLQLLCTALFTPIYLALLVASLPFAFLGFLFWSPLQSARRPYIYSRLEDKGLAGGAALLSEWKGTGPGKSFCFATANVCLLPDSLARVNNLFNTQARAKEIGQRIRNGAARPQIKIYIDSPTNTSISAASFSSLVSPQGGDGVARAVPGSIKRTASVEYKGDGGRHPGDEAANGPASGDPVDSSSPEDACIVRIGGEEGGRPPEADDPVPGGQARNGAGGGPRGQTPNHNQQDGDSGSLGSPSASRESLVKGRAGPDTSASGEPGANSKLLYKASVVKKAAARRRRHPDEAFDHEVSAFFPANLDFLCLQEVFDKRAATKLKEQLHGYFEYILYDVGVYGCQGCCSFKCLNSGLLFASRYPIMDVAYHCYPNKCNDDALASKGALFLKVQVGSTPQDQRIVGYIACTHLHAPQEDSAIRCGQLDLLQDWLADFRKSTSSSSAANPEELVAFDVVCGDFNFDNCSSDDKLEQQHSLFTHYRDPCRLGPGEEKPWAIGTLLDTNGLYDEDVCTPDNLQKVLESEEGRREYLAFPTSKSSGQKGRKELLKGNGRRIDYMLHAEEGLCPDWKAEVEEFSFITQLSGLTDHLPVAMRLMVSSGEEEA
Protocol: Activities of SMase(s) were assayed as described by. Briefly, after treatment, the cells were washed with PBS, harvested in PBS, divided into two halves, and centrifuged. The fraction for N-SMase was resuspended in buffer A (100 mM Tris-HCl, pH 7.4, 0.1% Triton X-100, 1 mM EDTA, and protease inhibitors), and the cell suspension was sonicated and centrifuged at 500×g at 4° C. for 5 min. The supernatant was used as the enzyme source for N-SMase. The reaction mixture contained enzyme preparation in buffer A containing 5 nmol of [^14C] sphingomyelin, 5 nmol of phosphatidylserine, 5 mM dithiothreitol, and 5 mM MgC¾ in a final volume of 100 μl. Similarly, the fraction for A-SMase was resuspended in buffer B (100 mM sodium acetate, pH 5.0, 0.1% Triton X-100, and protease inhibitors). The cell suspension was sonicated and centrifuged. The supernatant was used as the source of A-SMase. The activity of A-SMase was measured in a 100-μl reaction mixture consisting of the enzyme preparation in buffer B and 5 nmol of [^14C] sphingomyelin. The enzyme reaction was initiated by the addition of 50 μl of substrate and stopped by the addition of 1.5 ml of chloroform:methanol (2:1, v/v) and 0.2 ml of water. After vortexing and phase separation, the aqueous phase was removed for counting.
In FIGS. 3A-3E, primary human astrocytes seeded in inserts were stimulated by the combination of Aβ and IL-Iβ as described above. After 24 h, media were removed and inserts were washed and placed on neurons that were pretreated with PTIO for 30 min. In FIG. 3A, after 1 h, activity of N-SMase was measured in total cell extracts of neurons as described above. After 18 h, neuronal viability was examined by the metabolism of MTT (FIG. 3B) and the release of LDH (FIG. 3C). Values obtained from the control group served as 100%, and data obtained in other groups were calculated as percent of control accordingly. Results are mean+S.D. of three different experiments. ^ap<0.001 vs control; ^bp<0.001 vs activated astrocytes. Primary human neurons were treated with 25 μM DETA-NONOate (a NO donor) and at different time points of treatment, activities of N-SMase (FIG. 3D) and A-SMase (FIG. 3E) were monitored. ^ap<0.001 vs control (0 h).

[2] = target: T2, A-SMase (Homo sapiens, UniProt P17405); test: Assay of A-SMase activity in primary human neurons; details: activated astroglia-insulted human neurons, chemical inhibitors
T2 construct: The supernatant was used as the source of A-SMase; endogenous in cells; host or cells: primary human neurons
T2 sequence (P17405 47-631): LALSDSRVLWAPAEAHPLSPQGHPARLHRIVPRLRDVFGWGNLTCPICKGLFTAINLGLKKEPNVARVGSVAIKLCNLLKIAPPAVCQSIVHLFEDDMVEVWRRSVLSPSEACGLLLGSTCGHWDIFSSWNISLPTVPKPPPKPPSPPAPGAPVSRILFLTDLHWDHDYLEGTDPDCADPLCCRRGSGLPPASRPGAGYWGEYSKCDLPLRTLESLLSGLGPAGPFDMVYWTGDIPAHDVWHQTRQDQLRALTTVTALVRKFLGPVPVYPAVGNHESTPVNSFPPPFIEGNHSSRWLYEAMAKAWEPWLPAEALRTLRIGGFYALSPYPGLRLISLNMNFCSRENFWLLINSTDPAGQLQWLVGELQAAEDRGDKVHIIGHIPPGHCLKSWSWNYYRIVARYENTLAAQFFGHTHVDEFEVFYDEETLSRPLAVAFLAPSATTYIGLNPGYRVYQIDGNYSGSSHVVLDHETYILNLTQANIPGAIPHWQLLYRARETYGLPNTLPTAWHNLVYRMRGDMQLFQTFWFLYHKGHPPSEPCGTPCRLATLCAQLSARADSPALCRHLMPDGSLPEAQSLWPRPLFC
Protocol: Activities of SMase(s) were assayed as described by. Briefly, after treatment, the cells were washed with PBS, harvested in PBS, divided into two halves, and centrifuged. The fraction for N-SMase was resuspended in buffer A (100 mM Tris-HCl, pH 7.4, 0.1% Triton X-100, 1 mM EDTA, and protease inhibitors), and the cell suspension was sonicated and centrifuged at 500×g at 4° C. for 5 min. The supernatant was used as the enzyme source for N-SMase. The reaction mixture contained enzyme preparation in buffer A containing 5 nmol of [^14C] sphingomyelin, 5 nmol of phosphatidylserine, 5 mM dithiothreitol, and 5 mM MgC¾ in a final volume of 100 μl. […] The activity of A-SMase was measured in a 100-μl reaction mixture consisting of the enzyme preparation in buffer B and 5 nmol of [^14C] sphingomyelin. […]
In FIGS. 3A-3E, primary human astrocytes seeded in inserts were stimulated by the combination of Aβ and IL-Iβ as described above. […] In FIG. 3A, after 1 h, activity of N-SMase was measured in total cell extracts of neurons as described above. […] Values obtained from the control group served as 100%, and data obtained in other groups were calculated as percent of control accordingly. […] Primary human neurons were treated with 25 μM DETA-NONOate (a NO donor) and at different time points of treatment, activities of N-SMase (FIG. 3D) and A-SMase (FIG. 3E) were monitored. ^ap<0.001 vs control (0 h).

[3] = tested on: primary human astroglia; test: NO synthesis (nitrite, Griess reagent) in primary human astroglia; details: astroglia preincubated 30 min with different concentrations of chemical inhibitor; nitrite after 24 h
Protocol: Synthesis of NO was determined by assay of culture supernatants for nitrite, a stable reaction product of NO with molecular oxygen, using Griess reagent as described.
After 24 h of stimulation, the concentration of nitrite was measured in supernatants (FIG. 4A) by Griess reagent. […] Cells were treated with ASO/ScO for 40 h followed by stimulation with the combination of fibrillar Aβ and IL-Iβ as above. After 6 h, the expression of iNOS mRNA was analyzed by both semi-quantitative RT-PCR (C) and quantitative real-time PCR (FIG. 4D). The expression of TNF-a, IL-6 and IL-Iβ mRNAs were analyzed by semi-quantitative RT-PCR (FIG. 4E). Results are mean±SD of three different experiments. ^ap<0.001 vs control; ^bp<0.001 vs (Aβ+IL-Iβ).

activity of N-SMase [1]: but not N-SMase
activity of A-SMase [2]: inhibited
Compound: CN(C)CCCN1c2ccccc2CCc2ccccc21 [imipramine]
(Aβ+IL-1β)-induced production of NO [3]: showed no effect
